Records with an inconclusive call do not appear. Calls of active or inactive are those of the source.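 The calls were made as follows: active = inhibition of the calcium rise above 50%; inconclusive = blank fluorescence over twice solvent-only controls, so no ratio; inactive = inhibition below 50%.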
What follows are compounds tested on TALL-104 cells, thapsigargin Ca2+ rise, fura-2 ratio (assay: inhibitors of thapsigargin-evoked calcium rise, mechanism study for lytic granule exocytosis inhibitor project, TALL-104 cells, fura-2 fluorescence, CherryPick01 (AID 720670)). Settings: at 30 µM; stronger effect = higher value.
Work on `O=C(Nc1ccc(F)cc1)c1nc(S(=O)(=O)Cc2ccccc2)ncc1Cl` yielded an inhibition of 75.7%. For `CC(=O)Nc1ccc2c(=O)n(-c3ccccc3)sc2c1`, the inhibition was 16.3% (inactive). With `CC1=NOC(=O)/C1=C/c1ccc(-c2ccc(Cl)cc2)o1` the inhibition was 18.1% (inactive). With `CCc1ccc2nc(N(CCCN(C)C)C(=O)c3ccc(S(=O)(=O)N4CCc5ccccc5C4)cc3)sc2c1` the inhibition was 50.9%. In the case of `COC(=O)c1c(NC(=O)c2nc3ccccc3s2)sc2c1CC(C)(C)NC2(C)C`, the inhibition is reported as 41.7% (inactive). In the case of `COC(=O)c1c(NC(=O)c2ccc(C(=O)c3ccccc3)cc2)sc2c1CC(C)(C)NC2(C)C`, the inhibition is reported as 73.3%. In the case of `Cc1cc(N2CCN(c3nc(-c4ccc([N+](=O)[O-])cc4)cs3)CC2)c2ccccc2n1`, the inhibition is reported as -35.4% (inactive). `COc1ccccc1CNc1nc(NCc2ccc(C(C)C)cc2)c2sccc2n1` was tested, and the inhibition was 4.1% (inactive). For `O=c1c2ccc(F)cc2sn1-c1ccccc1`, the inhibition was 7.1% (inactive). In the case of `CCCNC(=O)Cn1sc2nc(C)cc(C)c2c1=O`, the inhibition is reported as 19.7% (inactive). For `O=C(Cn1sc2ccccc2c1=O)Nc1ccc(F)cc1`, the inhibition was -21.1% (inactive). With `COc1cccc(-c2cnc3c(NC(C)=O)cc(-c4ccsc4)cn23)c1` the inhibition was 39.6% (inactive). With `O=C(OCc1ccccc1)N(CCCCN(CCCNCc1ccccc1)C(=O)OCc1ccccc1)CCCNCc1ccccc1` the inhibition was 57.3%. `CCCCn1c(=N)n(CC(=O)c2ccc(Br)s2)c2ccccc21` showed an inhibition of 58.6%. In the case of `COc1cc(-c2coc3c(C(=O)NCc4ccc(OC)c(OC)c4)cccc23)ccc1O`, the inhibition is reported as 15.4% (inactive). For `O=c1c2ccccc2sn1-c1ccccc1`, the inhibition was -10.6% (inactive). `COc1ccccc1CNc1nc(NCc2ccc3occc3c2)c2sccc2n1` was tested, and the inhibition was 8.8% (inactive). In the case of `COc1cccc(-c2cnc3c(NC(C)=O)cc(-c4ccccc4OC)cn23)c1`, the inhibition is reported as 81.3%. For `CN(C)CCCNC(=S)NCC(c1ccc(Cl)cc1Cl)c1c[nH]c2ccccc12` (configuration not stated), the inhibition was 10.4% (inactive). `CC(=O)Nc1ccc2sn(-c3ccccc3)c(=O)c2c1` was tested, and the inhibition was 12.6% (inactive). For `COc1ccc(-c2cc(NC=O)c3ncc(-c4ccccc4)n3c2)cc1OC`, the inhibition was 31.5% (inactive). For `N#Cc1ccc(NC(=O)Nc2ccc(Oc3ccc(NC(=O)Nc4ccc(C#N)cc4)cc3)cc2)cc1`, the inhibition was -1.1% (inactive). In the case of `CCCS(=O)(=O)Nc1ccc(Nc2c3ccccc3nc3ccccc23)c(OC)c1`, the inhibition is reported as 67.1%. With `N#Cc1c(Nc2ccccc2Cl)s[nH]c1=O` the inhibition was 9.3% (inactive). With `CCOc1ccc2nc(C)cc(Nc3cccc([N+](=O)[O-])c3)c2c1` the inhibition was 77.7%. With `CCCCC[C@@H](C)N1C[C@H](COCc2ccccc2)Oc2cc(N3CC[C@@H](N(C)C)C3)ccc2S1(=O)=O` the inhibition was 37.4% (inactive). `O=S(=O)(c1ccccc1)c1nnn2c1nc(NC1CCN(Cc3ccccc3)CC1)c1cc(Cl)ccc12` gave an inhibition of 79.3%. With `CCc1ccc(/C=C2/Sc3ccccc3N(CC(=O)NCCCN3CCOCC3)C2=O)cc1` the inhibition was 3.8% (inactive). `O=C(Cn1sc2ccccc2c1=O)NC12CC3CC(CC(C3)C1)C2` was tested, and the inhibition was 3% (inactive). `COc1ccc(-n2sc3ccccc3c2=O)cc1` was tested, and the inhibition was 19.8% (inactive). `COc1ccc([N+](=O)[O-])cc1Nc1c2ccccc2nc2ccccc12` was tested, and the inhibition was 12.2% (inactive). For `CCOC(=O)c1nnc(-c2ccccc2)nc1Sc1ccccc1Cl`, the inhibition was 21.2% (inactive). With `O=c1c2ccccc2sn1-c1ccccc1F` the inhibition was 18.8% (inactive). For `OC(CNCC(c1ccc(Cl)cc1Cl)c1c[nH]c2ccccc12)c1ccccc1` (configuration not stated), the inhibition was 34.1% (inactive). For `CCOc1cc(CNCCc2ccc(S(N)(=O)=O)cc2)ccc1OCc1ccc(Cl)cc1`, the inhibition was 63.5%. In the case of `Cc1ccc(S(=O)(=O)n2ccc3c(OCCOCCNCc4ccc(F)cc4)cccc32)cc1`, the inhibition is reported as 39.2% (inactive). With `CCc1nc2ccc(C(=O)NC3CCN(Cc4ccccc4)CC3)cn2c1N(C)Cc1cc2ccccc2s1` the inhibition was 3.6% (inactive). `O=C1Nc2ccc(Br)cc2/C1=C/C(=O)c1ccccc1` was tested, and the inhibition was 15.1% (inactive). For `O=C1C=CC(=O)N1N(c1ccccc1)c1ccccc1`, the inhibition was 11.2% (inactive). `O=C1CC(Sc2nnnn2-c2ccccc2)C(=O)N1c1cccc(Cl)c1` (configuration not stated) was tested, and the inhibition was 6.9% (inactive). In the case of `COc1ccc(-c2cc(NC=O)c3ncc(-c4cccc(OC)c4)n3c2)cc1`, the inhibition is reported as 22.8% (inactive). With `CCOC(=O)c1cc(-c2csc(Nc3c(C)cc(C)cc3C)n2)on1` the inhibition was 79.7%. For `CC1(C(=O)OCC(=O)Nc2nc(-c3ccc(F)c(F)c3)cs2)CC1(Cl)Cl` (configuration not stated), the inhibition was 20.1% (inactive). With `CCCCC[C@@H](C)N1C[C@@H](COCc2ccccc2)Oc2cc(N3CC[C@H](N(C)C)C3)ccc2S1(=O)=O` the inhibition was 37.6% (inactive). With `CN(c1ccccc1)S(=O)(=O)c1cccc(C(=O)NCCc2c[nH]c3ccccc23)c1` the inhibition was 78.8%. `COc1cccc(-c2cnc3c(NC=O)cc(-c4ccccc4)cn23)c1` showed an inhibition of 66.5%. `CCC(=C(c1ccc(OC)cc1)c1ccc(OC)cc1)c1cn(CC(O)CN2CCN(C)CC2)c2ccccc12` (configuration not stated) was tested, and the inhibition was 41.5% (inactive). `CC1=C(C)CS(=O)N(S(=O)(=O)c2ccc(Cl)cc2)C1` (configuration not stated) was tested, and the inhibition was 11.4% (inactive). `COC(=O)[C@]12CCCCC=C1N(Cc1cccc3ccccc13)C(=O)[C@H](CC(=O)NCc1ccc(OC)c(OC)c1)C2` was tested, and the inhibition was 6.3% (inactive). `CCOc1ccc2nc(N(CCCN(C)C)C(=O)c3ccc(S(=O)(=O)N4CCc5ccccc5C4)cc3)sc2c1` gave an inhibition of 69.4%. For `COc1cccc(NC(=O)Nc2nc(-c3ccc(OC)c(OC)c3)cs2)c1`, the inhibition was 90.9%. For `CC(C)(c1ccccc1)c1ccc(OCC(O)CNC2CCN(Cc3ccccc3)CC2)cc1` (configuration not stated), the inhibition was 27.1% (inactive). With `COc1ccc(N2C(=O)CC(Sc3nnc(-c4ccccc4)o3)C2=O)cc1` (configuration not stated) the inhibition was -14.7% (inactive). With `CCOC(=O)c1c(CSc2ccccc2)n(C)c2cc(Br)c(O)c(CN(C)C)c12` the inhibition was 70.2%. For `CCOC(=O)c1c(NC(=O)COc2ccccc2OCC)sc2c1CC(C)(C)NC2(C)C`, the inhibition was 32.1% (inactive). `CCCCC[C@@H](C)N1C[C@@H](COCc2ccccc2)Oc2cc(N3CC[C@@H](N(C)C)C3)ccc2S1(=O)=O` was tested, and the inhibition was 21.3% (inactive). In the case of `Cn1sc(=O)c2cc(S(=O)(=O)NC3CC3)ccc21`, the inhibition is reported as 91.3%. In the case of `c1ccc(CNc2nc(NCC3CC3)nc3cc(-c4ccccc4)sc23)cc1`, the inhibition is reported as 70%. `O=CNc1cc(-c2ccsc2)cn2c(-c3ccccc3)cnc12` was tested, and the inhibition was 11% (inactive). With `Cc1ccc(Nc2nc(NCc3ccco3)c3ccccc3n2)cc1` the inhibition was -2.3% (inactive). `Cc1ccc(-n2nnc3c(=O)oc4ccccc4c32)cc1` was tested, and the inhibition was 116%. For `CC1COCC(C)N1C1=C(Cl)C(=O)c2ccccc2C1=O` (configuration not stated), the inhibition was 27% (inactive).
